Consider seven molecules from US20110229447A1, “NUTRITIONAL SUPPORT TO PREVENT OR MODERATE BONE MARROW PARALYSIS OR NEUTROPENIA DURING ANTI-CANCER TREATMENT” (priority 2008, published 2011).

Data set [1] in a line: Example 2: body weight, haematology and flow cytometry of immune cells in tumor-bearing mice on supplemented diets with or without chemotherapy. The format is in vivo, C57BL/6 (H-2b) mice. Particulars: for immune cell population / concentration: during the second (tumor-induced) phase; for Global lymphocyte population: following chemotherapy. As for the experimental part: Mice. […] The animals were distributed into 7 different group diets. There was a control group that received the diet AIN 93 for adult rodents (maintenance). Test diets were administered in doses appropriate to the animal model: (a) Ctrl diet were supplemented with 1% (w/w) L-arginine, (b) 25% of the protein was replaced by glutamine, (c) 1% (w/w) L-citrulline, (d) 1 g/Kg body weight with active hexose correlated compound, (e) 20 mg/day of RNA nucleotides and (f) 25 mg/day of lactoferrin. […] Control animals without chemotherapeutic treatment were run in parallel for all tested diets. Body weight was assessed every two days. Blood samples were obtained at day 2, 4 and 10 after the chemo-treatment and at sacrifice (14 or 28 days). An autopsy was performed and tumor mass was assessed.
Haematological Evaluation.
Flow Cytometric Analysis.
A general note: A flow cytometer gives signals particle by particle.

A further data set has as its system NK cell. Particulars: about 750 mg per day for two weeks; cited from earlier work.
A short description of data set [2]: Example 1: body weight and haematological toxicity of chemotherapy in tumor-bearing mice.
Procedure: Mice. Inbred eight-week-old C57BL/6 (H-2b) mice were used in the experiments. Mice were inoculated subcutaneously (s.c.) on the left flank with 1×10^6 tumor cells, and tumor growth was monitored every 2 days by caliper measurement. 6 days after the tumor inoculation the animals were treated either with oxaliplatin or doxorubicin. Tumor growth was monitored every two days after the chemotherapeutic treatment and they were sacrificed after two weeks of tumor implantation. Some experiments were carried out until 28 days post-chemo to better assess tumor growth.
Body weight was assessed every two days until sacrifice.
Blood samples were obtained at day 2 and 4 after the chemo-treatment, at day 10 and at sacrifice (14 or 28 days). An autopsy was performed and tumoral mass was assessed.
Haematological Evaluation. Red blood cell enumeration, hemoglobin and hematocrit were measured at 2, 4, 10, 14 and 28 days.
White blood cell counts and differential leukocyte formulation were examined at the same time points. Blood samples were used in addition to determine immune cell populations.
Flow Cytometric Analysis. Cell subset analysis of the CD11c^+, CD11b^+Gr-1^+ and CD11b^+Gr-1^−, CD14^+, CD19^+, CD16^+, CD56^+, CD3^+, CD8^+, CD4^+ was performed. The battery of antibodies used permitted the evaluation of: B and T cell subsets NK, NKT cells, macrophages, dendritic cells, granulocytes.
The next data set has as its system γδ T cells. Particulars: acid hydrolysed, diluted in media; 5%-75%; cited from earlier work.
The next data set deals with MCA-OVA tumor cells. In words: Example 2: tumor growth in mice on supplemented diets with or without chemotherapy. The format is in vivo, C57BL/6 (H-2b) mice. The method, then: Mice. […] The animals were distributed into 7 different group diets. There was a control group that received the diet AIN 93 for adult rodents (maintenance). […] Control animals without chemotherapeutic treatment were run in parallel for all tested diets. Body weight was assessed every two days. Blood samples were obtained at day 2, 4 and 10 after the chemo-treatment and at sacrifice (14 or 28 days). An autopsy was performed and tumor mass was assessed.
Cancer Cell Lines. Methylcholanthrene (MCA) induced sarcoma cell line expressing the exogenous antigen ovalbumin (OVA) was grown in DMEM or RPMI 1640 supplemented with 2 mM L-glutamine, 10 mM HEPES, 20 μM 2-mercaptoethanol, 150 U/mL streptomycin, 200 U/mL penicillin, and 10% heat-inactivated FBS. 1×10^6 tumor cells were injected in the flank of the mice 6 days prior to the chemotherapy.
Tumor Growth Evaluation. Growth of tumors was monitored every 2 d by using calipers, and tumor volume was calculated by using the formula length×width×width×0.52 mm^3.

As to lactoferrin, the “toxicity (bone marrow / blood cells)” value in data set [1] (chemotherapy treated group versus control (FIG. 11)) was “less toxicity”. For the same molecule, in data set [1], the “immune cell population / concentration” value was “increase in their immune cell population” and the Global lymphocyte population result is reported as “less depressed”. For the same molecule, in data set [1] (oxaliplatin treated animals, after day ten), the “leukocytic increase (white blood cell counts)” value is reported as “leukocytic increase tended to be higher”.
With `NC(=O)NCCC[C@H](N)C(=O)O` [citrulline, L-citrulline], in data set [1], the Global lymphocyte population result was “less depressed”.
Regarding vitamin E, in the data set with NK cell, the “NK cell cytolytic activity” value is reported as “significantly improved” and the NKG2D expression entry is “small but consistent induction”.
With `O=C1[O][Pt]2([NH][C@@H]3CCCC[C@H]3[NH]2)[O]C1=O` [oxaliplatin], the Maximal weight loss entry in data set [2] (maximal dose 10 mg/kg, of initial body weight) is given as “around 15%”; in data set [1] (maximal dose 10 mg/kg), “around 15%”. Further, the leukocyte counts result in data set [2] (recovery starting after 7 days post chemotherapy) is recorded as “higher that the baseline counts”.
Turning to `CCNC(=O)CC[C@H](N)C(=O)O` [L-theanine], the “expansion of γδ T cells” value in the data set on γδ T cells is recorded as 15 fold.
Regarding `NC(=O)CC[C@H](N)C(=O)O` [glutamine], the Global lymphocyte population entry in data set [1] was “less depressed”.
Take `N=C(N)NCCC[C@H](N)C(=O)O` [arginine, L-arginine]: the tumor size entry with MCA-OVA tumor cells (combination with chemotherapy versus chemotherapy alone (FIG. 4)) was “further reduced the tumor size”. Moreover, in the data set on MCA-OVA tumor cells (compared to other diet groups), the “progression of the implanted tumor” value is recorded as “delayed progression of the implanted tumor”. Also, in data set [1] (between days 6 and 10 post-chemo (FIG. 3)), the “fall of erythrocytes (RBC)” value is listed as “prevented the marked fall of erythrocytes”. The “immune cell population / concentration” value in data set [1] was “increase immune cell concentration”. In addition, the “loss of CD3+ cells” value in data set [1] (flow cytometry, around 10 days post chemotherapy) was “partially modulated”.
